Tests used:
[1] = target: T1, Human orexin receptor type 2 (Homo sapiens, UniProt O43614); assay: Test 1: Evaluation of agonist activity for orexin receptor type 2 (aequorin luminescence, intracellular calcium mobilization in CHO cells); format: cell-based; details: relative percentage of luminescence for the luminescence (100%) of Orexin A (100 pM); CHO cells transiently expressing human orexin receptor type 2 and apoaequorin; Orexin A Lot. 641114
T1 construct: expressed in transfected cells; host or cells: CHO cells (transient expression)
T1 sequence (O43614 1-444): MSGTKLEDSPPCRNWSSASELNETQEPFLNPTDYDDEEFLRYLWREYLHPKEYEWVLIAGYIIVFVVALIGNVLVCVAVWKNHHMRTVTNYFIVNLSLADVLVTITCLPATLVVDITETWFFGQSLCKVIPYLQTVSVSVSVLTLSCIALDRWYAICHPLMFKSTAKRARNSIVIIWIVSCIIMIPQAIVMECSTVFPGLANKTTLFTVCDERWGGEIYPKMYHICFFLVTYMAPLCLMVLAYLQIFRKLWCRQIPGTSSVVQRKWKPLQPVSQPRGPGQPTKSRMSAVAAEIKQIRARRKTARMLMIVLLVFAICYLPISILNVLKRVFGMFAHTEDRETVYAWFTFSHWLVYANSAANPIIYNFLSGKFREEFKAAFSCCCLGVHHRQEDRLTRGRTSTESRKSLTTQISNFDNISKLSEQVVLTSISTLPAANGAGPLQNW
Experimental: Test 1: Evaluation of Agonist Activity for Orexin Receptor Type 2
Human orexin receptor type 2 and apoaequorin were transiently expressed in CHO cells, and the agonist activity was evaluated based on intracellular calcium mobilization with ligand stimulation. The CHO cells transiently-expressed human orexin receptor type 2 and apoaequorin were seeded on a 384-well plate by 2,000 cells/well, and then incubated for 16-22 hours. After the plate was returned to room temperature, Coelenterazine hcp (final concentration: 1 μM) was added to the plate, and the plate was allowed to stand at room temperature for 2 hours. And then, Orexin A (PEPTIDE INSTITUTE, INC., Lot. 641114) or each test compound was added to the plate, and the luminescence of the cells was measured with FDSS7000 (Hamamatsu Photonics K.K.), wherein Orexin A and each test compound were dissolved in DMSO (final concentration: 0.1%), and diluted with a buffer (Hanks, 20 mM HEPES, 0.1% BSA). The agonist activity of each test compound for orexin receptor type 2 was calculated as relative percentage of luminescence for the luminescence (100%) of Orexin A (100 pM).

[2] = target: T1, Human orexin receptor type 2; assay: Test 2: Evaluation of agonist activity for orexin receptor type 2 (aequorin luminescence, intracellular calcium mobilization in CHO cells); format: cell-based; details: relative percentage of luminescence for the luminescence (100%) of Orexin A (100 pM), CHO cells transiently expressing human orexin receptor type 2 and apoaequorin, Orexin A Lot. 671009
Summary of the method: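 CHO cells transiently co-expressing the receptor and apoaequorin, incubated 16–22 h, were loaded 2 h at room temperature with 1 μM coelenterazine hcp (final). Compounds in Hanks/20 mM HEPES/0.1% BSA (0.1% DMSO final) were added and the calcium luminescence was read and expressed as % of Orexin A (100 pM).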

SMILES | agonist activity (%) [2] [%] | further results
Cc1ccc(C2CCN(C(=O)NC3C(CN4CCN(C(C)C)CC4)[C@@H]4CC[C@H]3C4)CC2)cc1 (mixture of isomers) [Example 81, rac-4-(4-Methylphenyl)-N-[(1S,4R)-3-{[4-(propan-2-yl)piperazin-1-yl]methyl}bicyclo[2.2.1]heptan-2-yl]piperidine-1-carboxamide] |  | agonist activity (%) [1]: 57%
CN(CC1CC1)[C@H]1CCN([C@H]2CCCC(F)(F)[C@@H]2NC(=O)N2CCC(C)(c3noc(C4CC4)n3)CC2)C1 [Example 138, N-[(1R,6S)-6-{(3S)-3-[(cyclopropylmethyl)(methyl)amino]pyrrolidin-1-yl}-2,2-difluorocyclohexyl]-4-(5-cyclopropyl-1,2,4-oxadiazol-3-yl)-4-methylpiperidine-1-carboxamide] | 385 | 
CC(C)N1CCC(O[C@H]2CCCC(F)(F)[C@@H]2NC(=O)N2CCC(C)(c3noc([C@@H]4C[C@@H]4F)n3)CC2)CC1 [Example 83, N-[(1R,6S)-2,2-difluoro-6-{[1-(propan-2-yl)piperidin-4-yl]oxy}cyclohexyl]-4-{5-[(1S,2S)-2-fluorocyclopropyl]-1,2,4-oxadiazol-3-yl}-4-methylpiperidine-1-carboxamide] | 371 | 
CC(C)N1[C@@H]2CC[C@H]1C[C@@H](O[C@H]1CCCC(F)(F)[C@@H]1NC(=O)N1CCC(C)(c3noc([C@@H]4C[C@@H]4F)n3)CC1)C2 [Example 105, N-[(1R,6S)-2,2-difluoro-6-{[(1R,3R,5S)-8-(propan-2-yl)-8-azabicyclo[3.2.1]octan-3-yl]oxy}cyclohexyl]-4-{5-[(1S,2S)-2-fluorocyclopropyl]-1,2,4-oxadiazol-3-yl}-4-methylpiperidine-1-carboxamide] | 359 | 
CC(C)N1CCC(S[C@H]2CCCC(F)(F)[C@@H]2NC(=O)N2CCC(C)(c3noc([C@@H]4C[C@@H]4F)n3)CC2)CC1 [Example 154, N-[(1S,6S)-2,2-difluoro-6-{[1-(propan-2-yl)piperidin-4-yl]sulfanyl}cyclohexyl]-4-{5-[(1S,2S)-2-fluorocyclopropyl]-1,2,4-oxadiazol-3-yl}-4-methylpiperidine-1-carboxamide] | 493 | 
CC(C)N(C)C1CN([C@H]2CCCC(F)(F)[C@@H]2NC(=O)N2CCC(C)(c3noc([C@@H]4C[C@@H]4F)n3)CC2)C1 [Example 148, N-[(1R,6S)-2,2-difluoro-6-{3-[methyl(propan-2-yl)amino]azetidin-1-yl}cyclohexyl]-4-{5-[(1S,2S)-2-fluorocyclopropyl]-1,2,4-oxadiazol-3-yl}-4-methylpiperidine-1-carboxamide] | 391 | 
CC(C)N(C)[C@H]1CCN([C@H]2CCCC(F)(F)[C@@H]2NC(=O)N2CCC(C)(c3noc(C4CC4)n3)CC2)C1 [Example 99, 4-(5-cyclopropyl-1,2,4-oxadiazol-3-yl)-N-[(1R,6S)-2,2-difluoro-6-{(3S)-3-[methyl(propan-2-yl)amino]pyrrolidin-1-yl}cyclohexyl]-4-methylpiperidine-1-carboxamide] | 499 | 
CC(C)N1CCC(N(C)[C@H]2CCCC(F)(F)[C@@H]2NC(=O)N2CCC(C)(c3noc([C@@H]4C[C@@H]4F)n3)CC2)CC1 [Example 123, N-[(1R,6S)-2,2-difluoro-6-{methyl[1-(propan-2-yl)piperidin-4-yl]amino}cyclohexyl]-4-{5-[(1S,2S)-2-fluorocyclopropyl]-1,2,4-oxadiazol-3-yl}-4-methylpiperidine-1-carboxamide] | 366 | 
CC(C)N1CCN(C(=O)O[C@H]2CCCC(F)(F)[C@@H]2NC(=O)N2CCC(C)(c3noc([C@@H]4C[C@@H]4F)n3)CC2)CC1 [Example 153, (1S,2R)-3,3-difluoro-2-[(4-{5-[(1S,2S)-2-fluorocyclopropyl]-1,2,4-oxadiazol-3-yl}-4-methylpiperidine-1-carbonyl)amino]cyclohexyl 4-(propan-2-yl)piperazine-1-carboxylate] | 350 | 
CC(C)N1[C@@H]2CC[C@H]1C[C@H](O[C@H]1CCCC(F)(F)[C@@H]1NC(=O)N1CCC(C)(c3noc([C@@H]4C[C@@H]4F)n3)CC1)C2 [Example 98, N-[(1R,6S)-2,2-difluoro-6-{[(1R,3S,5S)-8-(propan-2-yl)-8-azabicyclo[3.2.1]octan-3-yl]oxy}cyclohexyl]-4-{5-[(1S,2S)-2-fluorocyclopropyl]-1,2,4-oxadiazol-3-yl}-4-methylpiperidine-1-carboxamide] | 271 | 
CC(C)N1CC[C@H](N(Cc2ccccc2)[C@H]2CCCC(F)(F)[C@@H]2NC(=O)N2CCC(C)(c3noc([C@@H]4C[C@@H]4F)n3)CC2)C1 [Example 91, N-[(1R,6S)-6-{benzyl[(3S)-1-(propan-2-yl)pyrrolidin-3-yl]amino}-2,2-difluorocyclohexyl]-4-{5-[(1S,2S)-2-fluorocyclopropyl]-1,2,4-oxadiazol-3-yl}-4-methylpiperidine-1-carboxamide] | 243 | 
CN(CC1CC1)C1C[C@H]2CC[C@@H](C1)N2[C@H]1CCCC(F)(F)[C@@H]1NC(=O)N1CCC(C)(c2noc([C@@H]3C[C@@H]3F)n2)CC1 (stereo partly drawn) [Example 141, N-[(1R,6S)-6-{(1R,3R,5S)-3-[(cyclopropylmethyl)(methyl)amino]-8-azabicyclo[3.2.1]octan-8-yl}-2,2-difluorocyclohexyl]-4-{5-[(1S,2S)-2-fluorocyclopropyl]-1,2,4-oxadiazol-3-yl}-4-methylpiperidine-1-carboxamide] |  | agonist activity (%) ([2]; 0.0001 µM): 405%
CC1(CN2CC[C@H](O[C@H]3CCCC(F)(F)[C@@H]3NC(=O)N3CCC(C)(c4noc([C@@H]5C[C@@H]5F)n4)CC3)C2)CC1 [Example 121, N-[(1R,6S)-2,2-difluoro-6-({(3S)-1-[(1-methylcyclopropyl)methyl]pyrrolidin-3-yl}oxy)cyclohexyl]-4-{5-[(1S,2S)-2-fluorocyclopropyl]-1,2,4-oxadiazol-3-yl}-4-methylpiperidine-1-carboxamide] | 379 | 
CC(C)N(C)C1(C)CCN([C@H]2CCCC(F)(F)[C@@H]2NC(=O)N2CCC(C)(c3noc([C@@H]4C[C@@H]4F)n3)CC2)CC1 [Example 131, N-[(1R,6S)-2,2-difluoro-6-{4-methyl-4-[methyl(propan-2-yl)amino]piperidin-1-yl}cyclohexyl]-4-{5-[(1S,2S)-2-fluorocyclopropyl]-1,2,4-oxadiazol-3-yl}-4-methylpiperidine-1-carboxamide] | 461 | 
CC(C)N1CC2CN([C@H]3CCCC(F)(F)[C@@H]3NC(=O)N3CCC(C)(c4noc([C@@H]5C[C@@H]5F)n4)CC3)CC2C1 (stereo partly drawn) [Example 125, N-{(1R,6S)-2,2-difluoro-6-[5-(propan-2-yl)hexahydropyrrolo[3,4-c]pyrrol-2(1H)-yl]cyclohexyl}-4-{5-[(1S,2S)-2-fluorocyclopropyl]-1,2,4-oxadiazol-3-yl}-4-methylpiperidine-1-carboxamide] | 402 | 
CC(C)N(C)C1CCN([C@H]2CCCC(F)(F)[C@@H]2NC(=O)N2CCC(C)(c3noc([C@@H]4C[C@@H]4F)n3)CC2)CC1 [Example 114, N-[(1R,6S)-2,2-difluoro-6-{4-[methyl(propan-2-yl)amino]piperidin-1-yl}cyclohexyl]-4-{5-[(1S,2S)-2-fluorocyclopropyl]-1,2,4-oxadiazol-3-yl}-4-methylpiperidine-1-carboxamide] | 438 | 
Cc1ccc(C2(C)CCN(C(=O)N[C@@H]3[C@@H](O[C@H]4CCN(CC5(C)CC5)C4)CCCC3(F)F)CC2)cc1 [Example 130, N-[(1R,6S)-2,2-difluoro-6-({(3S)-1-[(1-methylcyclopropyl)methyl]pyrrolidin-3-yl}oxy)cyclohexyl]-4-methyl-4-(4-methylphenyl)piperidine-1-carboxamide] | 450 | 

Source: patent US12162872B2, “Cycloalkylurea derivative” (Sumitomo Pharma Co., Ltd., priority 2019, dated 2024)
